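The compound was tested at five concentrations on cells cultured in 96-well plates, with a 48-hour exposure period. GI50 marks 50% less growth.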 Calls of active or inactive are those of the source. Rule as the data show it: active = GI50 up to about 1.1 µM and inactive = higher.
Tests used:
Assay in all cases: growth of human tumour cells (NCI), 48 h
[1] = test system: 786-0
[2] = test system: A498
[3] = test system: CCRF-CEM
[4] = test system: COLO 205
[5] = test system: HCC 2998
[6] = test system: HOP-92
[7] = test system: IGROV-1
[8] = test system: LOX IMVI
[9] = test system: LXFL 529
[10] = test system: M14
[11] = test system: MOLT-4
[12] = test system: NCI-H23
[13] = test system: SF-539
[14] = test system: SK-MEL-28
[15] = test system: SNB-75
[16] = test system: UO-31
[17] = test system: NCI-H226

Measured: GI50

CC1(C)CC2CC(CC(C)(C)C2=O)C1=O
inactive: [1] > 100 µM | [2] > 100 µM | [3] > 100 µM | [4] > 100 µM | [5] > 100 µM | [6] > 100 µM | [7] > 100 µM | [8] > 100 µM | [9] > 100 µM | [10] > 100 µM | [11] > 100 µM | [12] > 100 µM | [13] > 100 µM | [14] > 100 µM | [15] > 100 µM | [16] > 100 µM

O=C1N(c2ccccc2)C(=O)C2(SC=NN2Cc2ccccc2)N1c1ccccc1 (stereo not given)
inactive: [1] > 100 µM | [2] > 100 µM | [3] > 100 µM | [4] > 100 µM | [5] > 100 µM | [6] > 100 µM | [7] > 100 µM | [8] > 100 µM | [9] > 100 µM | [10] > 100 µM | [11] > 100 µM | [17] > 100 µM | [12] > 100 µM | [13] > 100 µM | [14] > 100 µM | [15] > 100 µM | [16] > 100 µM

Cc1ccc(S(=O)(=O)c2c3nc4ccccc4nc3n3c2[nH]c2ccccc23)cc1
inactive: [1] > 100 µM | [2] 18.7 µM | [3] > 100 µM | [4] > 100 µM | [5] > 100 µM | [6] > 100 µM | [7] 8.13 µM | [8] > 100 µM | [9] > 100 µM | [10] > 100 µM | [11] > 100 µM | [12] > 100 µM | [13] > 100 µM | [14] > 100 µM | [15] > 100 µM | [16] > 100 µM

CC(C)NC1CCCCC2c3cc(F)ccc3[C@]12O (stereo not given in full)
inactive: [1] > 100 µM | [2] > 100 µM | [3] > 100 µM | [4] > 100 µM | [5] > 100 µM | [7] > 100 µM | [8] > 100 µM | [9] > 100 µM | [10] > 100 µM | [11] > 100 µM | [17] > 100 µM | [12] > 100 µM | [13] > 100 µM | [14] > 100 µM | [15] > 100 µM | [16] > 100 µM

COc1ccc2c3c1C(=O)CCC3CO2 (stereo not given)
inactive: [1] > 100 µM | [2] > 100 µM | [3] > 100 µM | [4] > 100 µM | [5] > 100 µM | [6] > 100 µM | [7] > 100 µM | [8] > 100 µM | [9] > 100 µM | [10] > 100 µM | [11] > 100 µM | [12] > 100 µM | [13] > 100 µM | [14] > 100 µM | [16] > 100 µM

N#CC(c1ccc(Cl)cc1)c1cccc(C(C#N)c2ccc(Cl)cc2)n1 (stereo not given)
inactive: [1] 50.4 µM | [2] 2.31 µM | [3] 25.9 µM | [4] 14.4 µM | [5] 37.4 µM | [6] 15.2 µM | [9] 7.78 µM | [10] 34.8 µM | [11] 8.02 µM | [17] 37.4 µM | [12] 3.95 µM | [14] 17 µM | [15] 15.9 µM | [16] 4.65 µM

CN1C2C=C(c3ccccc3)CC1CC2 (stereo not given)
inactive: [1] > 100 µM | [2] > 100 µM | [3] > 100 µM | [4] > 100 µM | [5] > 100 µM | [6] > 100 µM | [7] > 100 µM | [8] > 100 µM | [9] > 100 µM | [10] > 100 µM | [11] > 100 µM | [12] > 100 µM | [13] > 100 µM | [14] > 100 µM | [15] 56.1 µM | [16] > 100 µM
